Patent publication US10766869B2, “Triazoles for the treatment of demyelinating dieases” (Vertex Pharmaceuticals Incorporated, priority 2015, dated 2020)
Like-named read-outs stand apart in the source and are kept apart here.

System: primary rat mixed cortical cells
Assay: In vitro myelination assay (MBP positive myelin strands, fold myelin pixels above background)
Type: cell-based
Conditions: Rattus norvegicus; for fold induction at 1 µM: 1.0 μM compound; for fold induction at 10 µM: 10.0 μM compound
How it was run: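 Myelination read as total MBP-immunopositive strand pixels per well, imaged at 10× after fixation on day 14 and expressed relative to untreated wells, at 1.0 and 10.0 μM. Cells: dissociated postnatal day 1 rat cortex, cultured two weeks with compound, re-dosed at days 6 and 10.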

[1] = relative to baseline of no added compound, read-out: Fold myelin pixels above background, 1.0 μM
[2] = relative to baseline of no added compound, read-out: Fold myelin pixels above background, 10.0 μM
[3] = relative to baseline of no added compound, read-out: Fold myelin pixels above background
[4] = read-out: Fold myelin pixels above background relative to baseline of no added compound

| SMILES | fold induction at 1 µM [1] | fold induction at 10 µM [2] | fold induction at 1 µM [3] | fold induction at 10 µM [3] | also measured |
| --- | --- | --- | --- | --- | --- |
| COc1cc(OC)cc(-n2cnc(Nc3cc(C4CC4)nc(N4CC[C@@H](F)C4)c3)n2)c1 [Compound 245, 2-cyclopropyl-N-[1-(3,5-dimethoxyphenyl)-1,2,4-triazol-3-yl]-6-[(3R)-3-fluoropyrrolidin-1-yl]pyridin-4-amine] | 1 to 10 | 10 to 100 |  |  |  |
| Cc1cc(Nc2ncn(-c3cc(F)cc(F)c3)n2)cc(O[C@@H]2CCCN(C3COC3)C2)c1 (single isomer, unassigned) [Compound 748] |  |  | 10 to 100 | ≤ 1 |  |
| Cc1cc(Nc2ncn(-c3ccc(F)c(F)c3)n2)cc(C2CN(C3COC3)C2)c1 [Compound 301, 1-(3,4-difluorophenyl)-N-[3-methyl-5-[1-(oxetan-3-yl)azetidin-3-yl]phenyl]-1,2,4-triazol-3-amine] | 1000 to 10000 | 100 to 1000 |  |  |  |
| Cc1cc(Nc2ncn(-c3cc(F)cc(F)c3)n2)cc(N2CCCC(N3CCCC3=O)C2)c1 (stereo not shown) [Compound 114, 1-[1-[3-[[1-(3,5-difluorophenyl)-1,2,4-triazol-3-yl]amino]-5-methyl-phenyl]-3-piperidyl]pyrrolidin-2-one] | 10 to 100 | 10 to 100 |  |  |  |
| Cc1cc(Nc2ncn(-c3ccncn3)n2)cc(C2CCCN(C3COC3)C2)c1 (stereo not shown) [Compound 180, N-[3-methyl-5-[1-(oxetan-3-yl)-3-piperidyl]phenyl]-1-pyrimidin-4-yl-1,2,4-triazol-3-amine] | 100 to 1000 | ≤ 1 |  |  |  |
| COc1cc(Nc2ncn(-c3cccc(C(F)(F)F)c3)n2)nc(N2CCN(C3COC3)CC2)c1 [Compound 610, 4-methoxy-6-[4-(oxetan-3-yl)piperazin-1-yl]-N-[1-[3-(trifluoromethyl)phenyl]-1,2,4-triazol-3-yl]pyridin-2-amine] |  |  | 1 to 10 | 1 to 10 |  |
| Fc1ccc(-n2cnc(Nc3cc(F)cc(N4CCOCC4)c3)n2)cc1 [Compound 394, N-(3-fluoro-5-morpholino-phenyl)-1-(4-fluorophenyl)-1,2,4-triazol-3-amine] |  |  | 1 to 10 | ≤ 1 |  |
| CS(=O)(=O)c1cc(Nc2ncn(-c3cc(F)cc(F)c3)n2)cc(N2CCN(C3COC3)CC2)c1 [Compound 344, 1-(3,5-difluorophenyl)-N-[3-methylsulfonyl-5-[4-(oxetan-3-yl)piperazin-1-yl]phenyl]-1,2,4-triazol-3-amine] | 100 to 1000 | 10 to 100 |  |  |  |
| Cc1cc(Nc2ncn(-c3cccc(C(F)(F)F)c3)n2)cc(OCCn2cccn2)c1 [Compound 644, N-[3-methyl-5-(2-pyrazol-1-ylethoxy)phenyl]-1-[3-(trifluoromethyl)phenyl]-1,2,4-triazol-3-amine] |  |  | 1 to 10 | 10 to 100 |  |
| Cc1cc(Nc2ncn(-c3cc(F)cc(F)c3)n2)cc(N2CC(n3cccn3)C2)c1 [Compound 379, 1-(3,5-difluorophenyl)-N-[3-methyl-5-(3-pyrazol-1-ylazetidin-1-yl)phenyl]-1,2,4-triazol-3-amine] | 10 to 100 | 100 to 1000 |  |  |  |
| COCCC1CCN(c2cc(C)cc(Nc3ncn(-c4ccccc4)n3)c2)CC1 [Compound 148, N-[3-[4-(2-methoxyethyl)-1-piperidyl]-5-methyl-phenyl]-1-phenyl-1,2,4-triazol-3-amine] | 100 to 1000 | 100 to 1000 |  |  |  |
| Cc1cc(Nc2ncn(-c3cc(F)cc(F)c3)n2)cc(N2C[C@@H]3C[C@H]2CN3C2CC2)c1 [Compound 78, N-[3-[(1S,4S)-2-cyclopropyl-2,5-diazabicyclo[2.2.1]heptan-5-yl]-5-methyl-phenyl]-1-(3,5-difluorophenyl)-1,2,4-triazol-3-amine] | 100 to 1000 | ≤ 1 |  |  |  |
| Cc1cc(Nc2ncn(-c3cncnc3)n2)cc(N2CCN(C)CC2)c1 [Compound 381, N-[3-methyl-5-(4-methylpiperazin-1-yl)phenyl]-1-pyrimidin-5-yl-1,2,4-triazol-3-amine] | 1 to 10 | 100 to 1000 |  |  |  |
| Cc1cc(Nc2ncn(-c3cc(F)cc(F)c3)n2)cc(N2CCN(C(C)(C)C(=O)O)CC2)c1 [Compound 509, 2-[4-[3-[[1-(3,5-difluorophenyl)-1,2,4-triazol-3-yl]amino]-5-methyl-phenyl]piperazin-1-yl]-2-methyl-propanoic acid] |  |  | 100 to 1000 | 100 to 1000 |  |
| Fc1ccc(-n2cnc(Nc3cc(C4CC4)nc(N4CCOCC4)c3)n2)cc1F [Compound 88, 2-cyclopropyl-N-[1-(3,4-difluorophenyl)-1,2,4-triazol-3-yl]-6-morpholino-pyridin-4-amine] | 1000 to 10000 | 1000 to 10000 |  |  |  |
| CCN1CCN(C2CCN(c3cc(C)cc(Nc4ncn(-c5cc(F)cc(F)c5)n4)c3)CC2)CC1 [Compound 1025, 1-(3,5-difluorophenyl)-N-[3-[4-(4-ethylpiperazin-1-yl)-1-piperidyl]-5-methyl-phenyl]-1,2,4-triazol-3-amine] |  |  |  |  | fold induction at 1 µM [4]: 1 to 10; fold induction at 10 µM [4]: 10 to 100 |
| Cc1cc(Nc2ncn(-c3cc(F)cc(F)c3)n2)cc(N2C3CCC2COC3)c1 [Compound 722, 1-(3,5-difluorophenyl)-N-[3-methyl-5-(3-oxa-8-azabicyclo[3.2.1]octan-8-yl)phenyl]-1,2,4-triazol-3-amine] |  |  | 10 to 100 | 10 to 100 |  |
| Cc1cc(Nc2ncn(-c3cc(F)cc(F)c3)n2)nc(N2CC(C3COC3)C2)c1 [Compound 563, N-[1-(3,5-difluorophenyl)-1,2,4-triazol-3-yl]-4-methyl-6-[3-(oxetan-3-yl)azetidin-1-yl]pyridin-2-amine] |  |  | ≤ 1 | 1 to 10 |  |
| c1ccc(-n2cnc(Nc3cc(C4CC4)cc(N4CCOCC4)c3)n2)cc1 [Compound 305, N-(3-cyclopropyl-5-morpholino-phenyl)-1-phenyl-1,2,4-triazol-3-amine] | 100 to 1000 | ≤ 1 |  |  |  |
| Cc1cc(C#CC2CC2)cc(Nc2ncn(-c3cc(F)cc(F)c3)n2)c1 [Compound 798, N-[3-(2-cyclopropylethynyl)-5-methyl-phenyl]-1-(3,5-difluorophenyl)-1,2,4-triazol-3-amine] |  |  |  |  | fold induction at 1 µM [4]: 1 to 10; fold induction at 10 µM [4]: 1 to 10 |
| CCc1cc(Nc2ncn(-c3ncncc3F)n2)cc(N2CCN(C3COC3)CC2)c1 [Compound 50, N-[3-ethyl-5-[4-(oxetan-3-yl)piperazin-1-yl]phenyl]-1-(5-fluoropyrimidin-4-yl)-1,2,4-triazol-3-amine] | ≤ 1 | 1000 to 10000 |  |  |  |
| Cc1cc(Nc2ncn(-c3cc(F)cc(F)c3)n2)c(F)c(NC2COC2)c1 [Compound 915, N3-[1-(3,5-difluorophenyl)-1,2,4-triazol-3-yl]-2-fluoro-5-methyl-N1-(oxetan-3-yl)benzene-1,3-diamine] |  |  |  |  | fold induction at 1 µM [4]: 1 to 10; fold induction at 10 µM [4]: ≤ 1 |
| FC(F)(F)c1cc(Nc2ncn(-c3ccccc3)n2)cc(N2CCOCC2)c1 [Compound 366, N-[3-morpholino-5-(trifluoromethyl)phenyl]-1-phenyl-1,2,4-triazol-3-amine] | 1000 to 10000 | 1000 to 10000 |  |  |  |
